# Test results taken from ChEMBL document CHEMBL5113515, “The Discovery of GSK3640254, a Next-Generation Inhibitor of HIV-1 Maturation” (J Med Chem, 2022).
# Experiments:
# [1] = Metabolic stability in mouse liver microsomes assessed as half life in presence of NADPH at 0.5 uM by LC-MS/MS analysis; type: ADME, Microsome
# [2] = system: Human immunodeficiency virus 1; assay: Antiviral activity against HIV1 virus harboring NL (4 to 3) harbouring […]/V370A mutant transfected in human HEK293T cells by luciferase reporter assay; type: functional, organism-based; conditions: Human immunodeficiency virus 1, HEK-293T
# [3] = Oral bioavailability in overnight fasted mouse using spray-dried dispersion at 5 mg/kg; type: ADME, organism-based; conditions: in vivo
# [4] = Half life in human liver microsomes at […] measured upto 300 mins by LC-MS/MS analysis; type: ADME, Microsome
# [5] = target: T1, UDP-glucuronosyltransferase 1A1 (Homo sapiens, UniProt P22309); assay: Inhibition of UGT1A1(unknown origin)
# T1 sequence (P22309 whole entry): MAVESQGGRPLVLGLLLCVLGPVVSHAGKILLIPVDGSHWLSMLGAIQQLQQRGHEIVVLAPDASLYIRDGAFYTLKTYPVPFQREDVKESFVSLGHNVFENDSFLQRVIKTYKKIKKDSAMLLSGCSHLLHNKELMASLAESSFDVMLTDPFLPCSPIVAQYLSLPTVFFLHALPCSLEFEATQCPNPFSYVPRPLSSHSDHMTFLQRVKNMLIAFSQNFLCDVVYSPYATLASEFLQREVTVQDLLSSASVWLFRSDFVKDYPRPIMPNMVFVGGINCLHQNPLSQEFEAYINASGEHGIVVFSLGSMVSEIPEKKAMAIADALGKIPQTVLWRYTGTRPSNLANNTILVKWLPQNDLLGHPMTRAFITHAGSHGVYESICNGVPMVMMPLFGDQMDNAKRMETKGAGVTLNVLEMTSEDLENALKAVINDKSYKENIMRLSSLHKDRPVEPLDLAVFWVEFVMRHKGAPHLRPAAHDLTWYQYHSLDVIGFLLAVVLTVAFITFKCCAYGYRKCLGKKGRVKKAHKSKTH
# Cytochrome P450 1A2 = target: T2, Cytochrome P450 1A2 (Homo sapiens, UniProt P05177); assay: Inhibition of CYP1A2 (unknown origin); type: ADME
# T2 sequence (P05177 whole entry): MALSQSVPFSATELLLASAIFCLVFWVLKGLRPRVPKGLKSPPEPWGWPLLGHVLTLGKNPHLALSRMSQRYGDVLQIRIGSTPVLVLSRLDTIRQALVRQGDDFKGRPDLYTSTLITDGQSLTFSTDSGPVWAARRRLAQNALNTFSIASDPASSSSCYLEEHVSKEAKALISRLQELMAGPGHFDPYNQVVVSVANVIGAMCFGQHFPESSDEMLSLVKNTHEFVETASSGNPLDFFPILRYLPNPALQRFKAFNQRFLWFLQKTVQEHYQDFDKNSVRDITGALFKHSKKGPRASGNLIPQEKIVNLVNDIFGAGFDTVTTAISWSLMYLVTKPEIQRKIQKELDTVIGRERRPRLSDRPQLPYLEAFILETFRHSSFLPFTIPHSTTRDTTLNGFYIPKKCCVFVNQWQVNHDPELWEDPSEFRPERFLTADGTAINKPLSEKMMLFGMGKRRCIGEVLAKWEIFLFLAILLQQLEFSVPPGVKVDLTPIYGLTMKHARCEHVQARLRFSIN
# [6] = Binding affinity to HIV1 wild type Gag assessed as dissociation constant; set-up: species or system Human immunodeficiency virus 1
# Cytochrome P450 2C8 = target: T3, Cytochrome P450 2C8 (Homo sapiens, UniProt P10632); assay: Inhibition of CYP2C8 (unknown origin); type: ADME
# T3 sequence (P10632 whole entry): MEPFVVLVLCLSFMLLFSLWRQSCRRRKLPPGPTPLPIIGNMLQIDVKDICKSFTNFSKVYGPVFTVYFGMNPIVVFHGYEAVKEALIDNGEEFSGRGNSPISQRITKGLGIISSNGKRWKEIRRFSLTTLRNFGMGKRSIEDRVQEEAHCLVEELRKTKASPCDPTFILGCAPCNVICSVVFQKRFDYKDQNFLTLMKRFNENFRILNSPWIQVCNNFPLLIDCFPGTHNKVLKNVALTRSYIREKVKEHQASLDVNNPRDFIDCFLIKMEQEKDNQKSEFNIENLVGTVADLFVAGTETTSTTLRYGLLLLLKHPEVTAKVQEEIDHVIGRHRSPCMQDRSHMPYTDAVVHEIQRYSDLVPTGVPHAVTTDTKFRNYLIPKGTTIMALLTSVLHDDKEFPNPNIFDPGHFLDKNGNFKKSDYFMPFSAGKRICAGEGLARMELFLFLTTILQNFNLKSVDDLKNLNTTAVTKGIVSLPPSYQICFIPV
# [7] = AUC(0 to t) in overnight fasted Sprague-Dawley rat at 5 mg/kg, po or 1 mg/kg, iv; type: ADME, organism-based; set-up: dose 5 mg/kg, route po; conditions: in vivo
# [8] = system: Human immunodeficiency virus 1; assay: Antiviral activity against HIV1 NL (4 to 3) harbouring V362I/deltaV370 mutant transfected in human HEK293T cells by dual-luciferase reporter assay; type: functional, organism-based; conditions: Human immunodeficiency virus 1, HEK-293T
# Cytochrome P450 3A4 = Cytochrome P450 3A4 (Homo sapiens, UniProt P08684); assay: Inhibition of CYP3A4 (unknown origin); type: ADME
# [9] = system: Human immunodeficiency virus 1; assay: Antiviral activity against HIV1 wild type subtype B NL (4 to 3) harbouring V362/Q369/V370/T371 transfected in human HEK293T cells by dual-luciferase reporter assay; type: functional, organism-based; conditions: Human immunodeficiency virus 1, HEK-293T
# Cytochrome P450 2D6 = Cytochrome P450 2D6 (Homo sapiens, UniProt P10635); assay: Inhibition of CYP2D6 (unknown origin); type: ADME
# [10] = Drug concentration in overnight fasted Sprague-Dawley rat plasma at 5 mg/kg, po or 1 mg/kg, iv measured after 24 hrs; type: ADME, organism-based
# [11] = Volume of distribution at steady state in overnight fasted Beagle dog at 2 mg/kg, po or 1 mg/kg, iv; type: ADME, organism-based, Canis lupus familiaris; conditions: in vivo
# [12] = Cmax in overnight fasted Sprague-Dawley rat at 5 mg/kg, po or 1 mg/kg, iv; type: ADME, organism-based; set-up: dose 5 mg/kg, route po; conditions: in vivo
# [13] = Half life in overnight fasted mouse at 1 mg/kg, iv; type: ADME, organism-based; conditions: in vivo
# Cytochrome P450 2C19 = Cytochrome P450 2C19 (Homo sapiens, UniProt P33261); assay: Inhibition of CYP2C19 (unknown origin); type: ADME
# [14] = system: Human immunodeficiency virus 1; assay: Antiviral activity against HIV1 harbouring V362I/V370A mutant infected in human MT2 cells measured after 4 to 5 days by dual-luciferase reporter assay; type: functional, organism-based; conditions: Human immunodeficiency virus 1, MT2
# [15] = Oral bioavailability in overnight fasted Sprague-Dawley rat using spray-dried dispersion at 5 mg/kg; type: ADME, organism-based; conditions: in vivo
# Cytochrome P450 3A4, sequence (P08684 whole entry): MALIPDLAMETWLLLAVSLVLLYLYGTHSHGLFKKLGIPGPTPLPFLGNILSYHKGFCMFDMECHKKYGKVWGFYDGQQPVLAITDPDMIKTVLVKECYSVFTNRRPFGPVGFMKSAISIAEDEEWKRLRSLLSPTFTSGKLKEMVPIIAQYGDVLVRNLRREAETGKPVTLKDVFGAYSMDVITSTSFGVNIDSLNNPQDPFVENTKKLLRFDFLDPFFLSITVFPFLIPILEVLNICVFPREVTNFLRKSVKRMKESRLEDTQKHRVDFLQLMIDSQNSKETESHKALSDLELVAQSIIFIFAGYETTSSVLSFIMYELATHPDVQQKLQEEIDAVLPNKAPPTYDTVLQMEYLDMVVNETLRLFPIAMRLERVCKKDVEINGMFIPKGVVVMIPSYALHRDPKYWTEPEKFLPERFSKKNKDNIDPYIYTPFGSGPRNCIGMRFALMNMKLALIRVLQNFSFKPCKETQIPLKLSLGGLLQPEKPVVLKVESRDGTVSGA
# Cytochrome P450 2C19, sequence (P33261 whole entry): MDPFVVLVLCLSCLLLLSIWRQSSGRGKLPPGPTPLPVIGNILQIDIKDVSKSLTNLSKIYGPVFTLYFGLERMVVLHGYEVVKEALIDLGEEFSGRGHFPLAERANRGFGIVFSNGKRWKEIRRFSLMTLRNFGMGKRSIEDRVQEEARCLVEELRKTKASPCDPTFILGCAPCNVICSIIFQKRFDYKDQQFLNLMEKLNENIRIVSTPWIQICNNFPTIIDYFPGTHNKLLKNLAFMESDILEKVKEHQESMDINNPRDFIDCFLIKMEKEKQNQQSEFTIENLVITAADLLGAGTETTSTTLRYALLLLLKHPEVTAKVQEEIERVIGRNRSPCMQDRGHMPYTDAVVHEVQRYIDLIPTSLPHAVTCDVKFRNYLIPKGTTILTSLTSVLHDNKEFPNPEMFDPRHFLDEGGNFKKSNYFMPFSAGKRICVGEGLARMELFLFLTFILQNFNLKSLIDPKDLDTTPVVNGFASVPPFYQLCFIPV
# Cytochrome P450 2D6, sequence (P10635 whole entry): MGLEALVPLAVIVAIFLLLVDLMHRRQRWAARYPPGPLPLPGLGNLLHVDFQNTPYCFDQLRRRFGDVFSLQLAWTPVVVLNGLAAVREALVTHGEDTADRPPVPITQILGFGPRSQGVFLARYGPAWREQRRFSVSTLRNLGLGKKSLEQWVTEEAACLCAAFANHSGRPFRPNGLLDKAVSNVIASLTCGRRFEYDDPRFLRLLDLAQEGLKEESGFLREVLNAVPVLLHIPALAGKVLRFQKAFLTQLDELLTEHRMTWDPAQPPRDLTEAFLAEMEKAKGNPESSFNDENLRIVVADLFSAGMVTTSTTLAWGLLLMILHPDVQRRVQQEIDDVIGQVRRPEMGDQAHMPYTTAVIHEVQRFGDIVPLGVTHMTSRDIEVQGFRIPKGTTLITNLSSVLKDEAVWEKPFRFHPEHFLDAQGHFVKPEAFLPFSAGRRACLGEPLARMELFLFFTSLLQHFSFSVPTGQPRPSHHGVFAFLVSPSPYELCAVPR
structure (smiles),measurement,setting,value
C=C(C)[C@@H]1CC[C@]2(NCCN3CCS(=O)(=O)CC3)CC[C@]3(C)[C@H](CC[C@@H]4[C@@]5(C)CC=C(C6=CC[C@@](CF)(C(=O)O)CC6)C(C)(C)[C@@H]5CC[C@]43C)[C@@H]12 [FIPRAVIRIMAT],half-life at 0.5 µM,[1],> 2 h
same,EC50,[2],> 3 µM
same,bioavailability,[3],91%
same,half-life,[4],> 24 h
same,IC50,[5],3.9 µM
same,IC50,Cytochrome P450 1A2,> 13.3 µM
same,Kd,[6],0.0014 µM
same,IC50,Cytochrome P450 2C8,> 13.3 µM
same,AUC(0-t),[7],7.4 µM·h
same,EC50,[8],0.003 µM
same,IC50,Cytochrome P450 3A4,> 13.3 µM
same,EC50,[9],0.0011 µM
same,IC50,Cytochrome P450 2D6,> 13.3 µM
same,concentration at 24 h,[10],0.0218 µM
same,Vdss,[11],0.49 L/kg
same,Cmax,[12],0.9 µM
same,half-life,[13],4.6 h
same,IC50,Cytochrome P450 2C19,> 13.3 µM
same,EC50,[14],0.003 µM
same,bioavailability,[15],40%
